Experimental data published in PubChem BioAssay AID248 (DTP/NCI, 2004).
Several values for one entry are separate records, joined by “and”; a condition that tells them apart may be missing. Equal values may be shown once. Toxic doses and inconclusive results are not listed. Cut-off read from the data, not from the text of the source: active = T/C of 150% or more; inactive = T/C below 125%.

System: L1210 leukemia ip in BDF1 mice, survival T/C
Assay: NCI In Vivo Anticancer Drug Screen. Data for tumor model L1210 Leukemia (intraperitoneal) in B6D2F1 (BDF1) mice
Details: higher = longer survival
How it was run: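 Transplanted-tumor mice were given test agent; controls received vehicle only. Survival readings from the two groups were divided (treated over control).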

[1] = endpoint: mean survival time, dose: 100.0 mg/kg/injection, schedule: Q01DX009 (ip), vehicle: saline with Tween-80
[2] = endpoint: mean survival time, dose: 100.0 mg/kg/injection, schedule: Q04DX003 (ip), vehicle: saline with Tween-80
[3] = endpoint: mean survival time, dose: 200.0 mg/kg/injection, schedule: Q01DX009 (ip), vehicle: saline with Tween-80
[4] = endpoint: mean survival time, dose: 200.0 mg/kg/injection, schedule: Q04DX003 (ip), vehicle: saline with Tween-80
[5] = endpoint: mean survival time, dose: 400.0 mg/kg/injection, schedule: Q01DX009 (ip), vehicle: saline with Tween-80
[6] = endpoint: mean survival time, dose: 400.0 mg/kg/injection, schedule: Q04DX003 (ip), vehicle: saline with Tween-80
[7] = endpoint: mean survival time, dose: 100.0 mg/kg/injection, schedule: Q01DX001 (ip), vehicle: Klucel (hydroxypropylcellulose) (HPC)

Measured: T/C

NS(=O)(=O)c1ccc(NC(=S)NC(=O)c2cccc([N+](=O)[O-])c2)cc1
inactive: endpoint: mean survival time, dose: 50.0 mg/kg/injection, schedule: Q04DX003 (ip), vehicle: saline with Tween-80 97 % of control | endpoint: mean survival time, dose: 100.0 mg/kg/injection, schedule: Q01DX001 (ip), vehicle: saline with Tween-80 96 % of control | [1] 96 % of control and 101 % of control | endpoint: mean survival time, dose: 100.0 mg/kg/injection, schedule: Q04DX002 (ip), vehicle: saline with Tween-80 90 % of control | [2] 97 % of control and 105 % of control | endpoint: mean survival time, dose: 200.0 mg/kg/injection, schedule: Q01DX001 (ip), vehicle: saline with Tween-80 101 % of control | [3] 103 % of control and 89 % of control | endpoint: mean survival time, dose: 200.0 mg/kg/injection, schedule: Q04DX002 (ip), vehicle: saline with Tween-80 104 % of control | [4] 94 % of control | endpoint: mean survival time, dose: 400.0 mg/kg/injection, schedule: Q01DX001 (ip), vehicle: saline with Tween-80 86 % of control | [5] 96 % of control and 89 % of control | endpoint: mean survival time, dose: 400.0 mg/kg/injection, schedule: Q04DX002 (ip), vehicle: saline with Tween-80 87 % of control | [6] 89 % of control

CC(=O)OCCC(=O)N1Cc2cc3ccccc3nc2C1
inactive: endpoint: mean survival time, dose: 10.0 mg/kg/injection, schedule: Q04DX003 (ip), vehicle: alcohol 96 % of control | endpoint: mean survival time, dose: 20.0 mg/kg/injection, schedule: Q04DX003 (ip), vehicle: alcohol 94 % of control | endpoint: mean survival time, dose: 40.0 mg/kg/injection, schedule: Q04DX003 (ip), vehicle: alcohol 96 % of control | endpoint: mean survival time, dose: 80.0 mg/kg/injection, schedule: Q04DX003 (ip), vehicle: alcohol 96 % of control | endpoint: mean survival time, dose: 160.0 mg/kg/injection, schedule: Q04DX003 (ip), vehicle: alcohol 92 % of control

CCc1ccc(N=Nc2ccc(-c3ccc(NC(C)=O)cc3)cc2)cc1
inactive: endpoint: mean survival time, dose: 100.0 mg/kg/injection, schedule: Q01DX001 (ip), vehicle: carboxymethylcellulose (CMC) 94 % of control | endpoint: mean survival time, dose: 200.0 mg/kg/injection, schedule: Q01DX001 (ip), vehicle: carboxymethylcellulose (CMC) 102 % of control | endpoint: mean survival time, dose: 400.0 mg/kg/injection, schedule: Q01DX001 (ip), vehicle: carboxymethylcellulose (CMC) 105 % of control

C/C=C1/C[C@@H](C)[C@@](C)(O)C(=O)OCC2=CC[N+]3([O-])CC[C@@H](OC1=O)[C@@H]23 (some centres not stated)
inactive: endpoint: mean survival time, dose: 20.0 mg/kg/injection, schedule: Q01DX015 (ip), vehicle: saline 98 % of control | endpoint: mean survival time, dose: 30.0 mg/kg/injection, schedule: Q01DX015 (ip), vehicle: saline 96 % of control | endpoint: mean survival time, dose: 40.0 mg/kg/injection, schedule: Q01DX015 (ip), vehicle: saline 102 % of control

CC(C)C(Br)C(=O)NCC(=O)O (configuration not stated)
inactive: [2] 102 % of control | [4] 98 % of control | [6] 98 % of control

OC(CC1(O)C(F)(F)C(F)(F)C1(F)F)c1ccccc1 (configuration not stated)
inactive: [1] 97 % of control | [5] 100 % of control

N=C(N)c1ccc(Nc2ccc(C(=N)N)cc2)cc1
inactive: endpoint: mean survival time, dose: 3.0 mg/kg/injection, schedule: Q01DX010 (ip), vehicle: saline 95 % of control and 91 % of control | endpoint: mean survival time, dose: 6.0 mg/kg/injection, schedule: Q01DX010 (ip), vehicle: saline 95 % of control and 91 % of control | endpoint: mean survival time, dose: 12.0 mg/kg/injection, schedule: Q01DX010 (ip), vehicle: saline 94 % of control and 97 % of control | endpoint: mean survival time, dose: 15.0 mg/kg/injection, schedule: Q02DX010 (ip), vehicle: carboxymethylcellulose (CMC) 99 % of control | endpoint: mean survival time, dose: 24.0 mg/kg/injection, schedule: Q01DX010 (ip), vehicle: saline 89 % of control and 91 % of control | endpoint: mean survival time, dose: 30.0 mg/kg/injection, schedule: Q02DX010 (ip), vehicle: carboxymethylcellulose (CMC) 103 % of control | endpoint: mean survival time, dose: 44.0 mg/kg/injection, schedule: Q02DX010 (ip), vehicle: carboxymethylcellulose (CMC) 89 % of control | endpoint: mean survival time, dose: 47.0 mg/kg/injection, schedule: Q01DX001 (ip), vehicle: water 97 % of control | endpoint: mean survival time, dose: 66.0 mg/kg/injection, schedule: Q02DX010 (ip), vehicle: carboxymethylcellulose (CMC) 77 % of control | endpoint: median survival time, dose: 6.0 mg/kg/injection, schedule: Q01DX009 (ip), vehicle: saline 105 % of control and 112 % of control | endpoint: median survival time, dose: 12.0 mg/kg/injection, schedule: Q01DX009 (ip), vehicle: saline 112 % of control | endpoint: median survival time, dose: 24.0 mg/kg/injection, schedule: Q01DX009 (ip), vehicle: saline 87 % of control

CCCOC(=O)N(C)c1ccccc1
inactive: endpoint: mean survival time, dose: 75.0 mg/kg/injection, schedule: Q04DX002 (ip), vehicle: Klucel (hydroxypropylcellulose) (HPC) 101 % of control | endpoint: mean survival time, dose: 150.0 mg/kg/injection, schedule: Q04DX002 (ip), vehicle: Klucel (hydroxypropylcellulose) (HPC) 101 % of control | endpoint: mean survival time, dose: 300.0 mg/kg/injection, schedule: Q04DX002 (ip), vehicle: Klucel (hydroxypropylcellulose) (HPC) 101 % of control

Cc1ccc(C)c(-n2nnc3ccccc3c2=O)c1
inactive: [1] 89 % of control | [2] 95 % of control | [3] 92 % of control | [4] 101 % of control | [5] 91 % of control | [6] 96 % of control

O=C(OCC1CC=CC1)C1CC=CC1
inactive: endpoint: mean survival time, dose: 100.0 mg/kg/injection, schedule: Q04DX003 (ip), vehicle: saline sonified 102 % of control | endpoint: mean survival time, dose: 200.0 mg/kg/injection, schedule: Q04DX003 (ip), vehicle: saline sonified 96 % of control

O=C(COc1ccc(Cl)cc1Cl)Nc1ccccc1F
inactive: endpoint: mean survival time, dose: 50.0 mg/kg/injection, schedule: Q01DX009 (ip), vehicle: saline with Tween-80 92 % of control | [1] 98 % of control and 87 % of control | [3] 89 % of control | [5] 95 % of control

O=[N+]([O-])c1ccc(C2N=C(c3ccccc3)CS2(=O)=O)cc1 (configuration not stated)
inactive: endpoint: mean survival time, dose: 100.0 mg/kg/injection, schedule: Q04DX003 (ip), vehicle: saline 97 % of control | endpoint: mean survival time, dose: 200.0 mg/kg/injection, schedule: Q04DX003 (ip), vehicle: saline 95 % of control | endpoint: mean survival time, dose: 400.0 mg/kg/injection, schedule: Q04DX003 (ip), vehicle: saline 93 % of control

O=S1(=O)CCCC1C(Cl)c1ccccc1 (configuration not stated)
inactive: endpoint: mean survival time, dose: 50.0 mg/kg/injection, schedule: Q01DX001 (ip), vehicle: Klucel (hydroxypropylcellulose) (HPC) 92 % of control | [7] 97 % of control

C/C=C/c1ccc2oc(-c3ccc(OC4OC(C)C(O)C(O)C4O)cc3)c(C)c2c1 (configuration not stated)
inactive: [7] 93 % of control | endpoint: mean survival time, dose: 200.0 mg/kg/injection, schedule: Q01DX001 (ip), vehicle: Klucel (hydroxypropylcellulose) (HPC) 90 % of control | endpoint: mean survival time, dose: 400.0 mg/kg/injection, schedule: Q01DX001 (ip), vehicle: Klucel (hydroxypropylcellulose) (HPC) 96 % of control

Cc1c(C#N)c2n(c1C)CCN2
inactive: endpoint: mean survival time, dose: 25.0 mg/kg/injection, schedule: Q01DX009 (ip), vehicle: Klucel (hydroxypropylcellulose) (HPC) 105 % of control | endpoint: mean survival time, dose: 50.0 mg/kg/injection, schedule: Q01DX009 (ip), vehicle: Klucel (hydroxypropylcellulose) (HPC) 97 % of control | [7] 91 % of control | endpoint: mean survival time, dose: 100.0 mg/kg/injection, schedule: Q01DX009 (ip), vehicle: Klucel (hydroxypropylcellulose) (HPC) 94 % of control

CNc1ccccc1C(=O)N/N=C/c1cccc([N+](=O)[O-])c1
inactive: endpoint: mean survival time, dose: 100.0 mg/kg/injection, schedule: Q04DX002 (ip), vehicle: Klucel (hydroxypropylcellulose) (HPC) 93 % of control | endpoint: mean survival time, dose: 200.0 mg/kg/injection, schedule: Q04DX002 (ip), vehicle: Klucel (hydroxypropylcellulose) (HPC) 96 % of control | endpoint: mean survival time, dose: 400.0 mg/kg/injection, schedule: Q04DX002 (ip), vehicle: Klucel (hydroxypropylcellulose) (HPC) 86 % of control

CC(=O)NCC(C)OC(C)=O (configuration not stated)
inactive: endpoint: mean survival time, dose: 100.0 mg/kg/injection, schedule: Q01DX009 (ip), vehicle: saline 104 % of control | endpoint: mean survival time, dose: 200.0 mg/kg/injection, schedule: Q01DX009 (ip), vehicle: saline 97 % of control | endpoint: mean survival time, dose: 400.0 mg/kg/injection, schedule: Q01DX009 (ip), vehicle: saline 97 % of control

O=S(=O)(c1ccc(OCC(O)COc2ccc(S(=O)(=O)c3ccc(OCC4CO4)cc3)cc2)cc1)c1ccc(OCC2CO2)cc1 (configuration not stated)
inactive: endpoint: mean survival time, dose: 100.0 mg/kg/injection, schedule: Q01DX001 (ip), vehicle: saline 106 % of control | endpoint: mean survival time, dose: 200.0 mg/kg/injection, schedule: Q01DX001 (ip), vehicle: saline 109 % of control | endpoint: mean survival time, dose: 400.0 mg/kg/injection, schedule: Q01DX001 (ip), vehicle: saline 104 % of control
